In ChEMBL document CHEMBL5260811, “Drug development against tuberculosis: Impact of alkaloids” (Eur J Med Chem, 2017):
Values after ≈ are worked out from the molar mass of the structure shown. Starred links: 1 amine or outer side, 2 acyl side, 3 side chain; linkers in the order of their positions; H or OH if unused. Positions of bridges follow the written chain, without caps; N, C: chain ends. Non-standard residues stand in square brackets, D forms with d. Residues, ends and D or L forms follow the SMILES beside them. *: point of attachment. X1 = NC1=N[C@@H]([C@H](N[*:1])C(=O)[*:2])C[C@H](O)N1; ΔAla(Z-3-ureido) = NC(=O)N/C=C(\N)C(=O)O; β3hOrn = NCCC[C@H](N)CC(=O)*; Dap = NC[C@H](N)C(=O)O

Tests used:
[1] = test system: Mycobacterium tuberculosis; test: Antimycobacterial activity against Mycobacterium tuberculosis Rv2163c harbouring ftsI gene; type: functional
[2] = test system: Mycobacterium tuberculosis; test: Antimycobacterial activity against Mycobacterium tuberculosis Rv2163c harbouring pbpB gene; type: functional
[3] = test system: Mycobacterium tuberculosis; test: microbe, parasite or virus in culture
[4] = test system: Mycobacterium tuberculosis; test: microbe, parasite or virus in culture; remark: listed apart in the source
[5] = test system: Mycobacterium tuberculosis; test: Antimycobacterial activity against Mycobacterium tuberculosis harbouring katG gene; type: functional
[6] = test system: Mycobacterium tuberculosis; test: Antimycobacterial activity against Mycobacterium tuberculosis harbouring rrs gene; type: functional
[7] = test system: Mycobacterium tuberculosis; test: Antimycobacterial activity against Mycobacterium tuberculosis Rv0006 harbouring gyrA gene; type: functional
[8] = test system: Mycobacterium tuberculosis; test: Antimycobacterial activity against Mycobacterium tuberculosis Rv0005 harbouring gyrB gene; type: functional
[9] = test system: Mycobacterium tuberculosis; test: Antimycobacterial activity against Mycobacterium tuberculosis Rv0701 harbouring rplC gene; type: functional
[10] = test system: Mycobacterium tuberculosis; test: Antimycobacterial activity against Mycobacterium tuberculosis Rv3790 harbouring DprE1 gene; type: functional
[11] = test system: Mycobacterium tuberculosis; test: Antimycobacterial activity against Mycobacterium tuberculosis Rv2068c harbouring blaC gene; type: functional
[12] = test system: Mycobacterium tuberculosis; test: Antimycobacterial activity against Mycobacterium tuberculosis Rv1484 harbouring inhA gene; type: functional
[13] = test system: Mycobacterium tuberculosis; test: Antimycobacterial activity against Mycobacterium tuberculosis harbouring pncA gene; type: functional
[14] = test system: Mycobacterium tuberculosis; test: Antimycobacterial activity against Mycobacterium tuberculosis Rv0667 harbouring rpoB gene; type: functional
[15] = test system: Mycobacterium tuberculosis; test: microbe, parasite or virus in culture; remark: listed apart in the source
[16] = test system: Mycobacterium tuberculosis; test: Antimycobacterial activity against Mycobacterium tuberculosis harbouring rpsL gene; type: functional
[17] = test system: Mycobacterium tuberculosis; test: Antimycobacterial activity against Mycobacterium tuberculosis Rv2196 harbouring qcrB gene; type: functional
[18] = test system: Mycobacterium tuberculosis; test: Antimycobacterial activity against multi-drug resistant Mycobacterium tuberculosis; type: functional
[19] = test system: Mycobacterium tuberculosis; test: Antimycobacterial activity against Mycobacterium tuberculosis harbouring vph gene; type: functional

C[C@@H](O)[C@H]1C(=O)N2C(C(=O)O)=C(SCCNC=N)C[C@H]12 [IMIPENEM ANHYDROUS]
MIC [1]: 160 ng/mL (≈ 534 nM)
MIC [2]: 160 ng/mL (≈ 534 nM)

NNC(=O)c1ccncc1 [ISONIAZID]
MIC [3]: 10 ng/mL (≈ 72.9 nM)
MIC [4]: 10 ng/mL (≈ 72.9 nM)
MIC [5]: 10 ng/mL (≈ 72.9 nM)

NC[C@H]1O[C@H](O[C@H]2[C@H](O)[C@@H](O[C@H]3O[C@H](CO)[C@@H](O)[C@H](N)[C@H]3O)[C@H](N)C[C@@H]2N)[C@H](O)[C@@H](O)[C@@H]1O [KANAMYCIN]
MIC [6]: 1000 ng/mL (≈ 2060 nM)

C[C@H]1COc2c(N3CCN(C)CC3)c(F)cc3c(=O)c(C(=O)O)cn1c23.C[C@H]1COc2c(N3CCN(C)CC3)c(F)cc3c(=O)c(C(=O)O)cn1c23.O [LEVOFLOXACIN]
MIC [7]: 500 ng/mL
MIC [8]: 500 ng/mL

CC(=O)NC[C@H]1CN(c2ccc(N3CCOCC3)c(F)c2)C(=O)O1 [LINEZOLID]
MIC [9]: 500 ng/mL (≈ 1480 nM)

O=c1nc(N2CCN(CC3CCCCC3)CC2)sc2c([N+](=O)[O-])cc(C(F)(F)F)cc12 [MACOZINONE]
MIC [10]: 0.3 ng/mL (≈ 0.657 nM)

C[C@@H](O)[C@H]1C(=O)N2C(C(=O)O)=C(S[C@@H]3CN[C@H](C(=O)N(C)C)C3)[C@H](C)[C@H]12 [MEROPENEM]
MIC [2]: 500 ng/mL (≈ 1300 nM)
MIC [11]: 500 ng/mL (≈ 1300 nM)

CC1COc2c(N3CCN(C)CC3)c(F)cc3c(=O)c(C(=O)O)cn1c23 (stereo unspecified) [OFLOXACIN]
MIC [7]: 125 ng/mL (≈ 346 nM)
MIC [8]: 125 ng/mL (≈ 346 nM)

O=C([C@@H](O)CO)N1CC=C(c2c(F)cc(N3C[C@H](COc4ccon4)OC3=O)cc2F)CC1 [POSIZOLID]
MIC [9]: 250 ng/mL (≈ 537 nM)

CCCc1cc(C(N)=S)ccn1 [PROTIONAMIDE]
MIC [12]: 300 ng/mL (≈ 1660 nM)

NC(=O)c1cnccn1 [PYRAZINAMIDE]
MIC [13]: 20000 ng/mL (≈ 162000 nM)

CO[C@H]1/C=C/O[C@@]2(C)Oc3c(C)c(O)c4c(c3C2=O)C2=NC3(CCN(CC(C)C)CC3)NC2=C(NC(=O)/C(C)=C\C=C\[C@H](C)[C@H](O)[C@@H](C)[C@@H](O)[C@@H](C)[C@H](OC(C)=O)[C@@H]1C)C4=O [RIFABUTIN]
MIC [14]: 15 ng/mL (≈ 17.7 nM)

CO[C@H]1/C=C/O[C@@]2(C)Oc3c(C)c(O)c4c(O)c(c(/C=N/N5CCN(C)CC5)c(O)c4c3C2=O)NC(=O)/C(C)=C\C=C\[C@H](C)[C@H](O)[C@@H](C)[C@@H](O)[C@@H](C)[C@H](OC(C)=O)[C@@H]1C [RIFAMPIN]
MIC [15]: 50 ng/mL (≈ 60.8 nM)

CO[C@H]1/C=C/O[C@@]2(C)Oc3c(C)c(O)c4c(O)c(c(/C=N/N5CCN(C6CCCC6)CC5)c(O)c4c3C2=O)NC(=O)/C(C)=C\C=C\[C@H](C)[C@H](O)[C@@H](C)[C@@H](O)[C@@H](C)[C@H](OC(C)=O)[C@@H]1C [RIFAPENTINE]
MIC [14]: 30 ng/mL (≈ 34.2 nM)

CN[C@@H]1[C@H](O[C@H]2[C@H](O[C@H]3[C@H](O)[C@@H](O)[C@H](N=C(N)N)[C@@H](O)[C@@H]3N=C(N)N)O[C@@H](C)[C@]2(O)C=O)O[C@@H](CO)[C@H](O)[C@H]1O [STREPTOMYCIN]
MIC [6]: 2000 ng/mL (≈ 3440 nM)
MIC [16]: 2000 ng/mL (≈ 3440 nM)

CC(=O)NC[C@H]1CN(c2ccc(N3CCSCC3)c(F)c2)C(=O)O1 [SUTEZOLID]
MIC [9]: 500 ng/mL (≈ 1410 nM)

CCc1nc2ccc(Cl)cn2c1C(=O)NCc1ccc(N2CCC(c3ccc(OC(F)(F)F)cc3)CC2)cc1 [TELACEBEC]
MIC [17]: 2.7 nM (≈ 1.5 ng/mL)

O=C1c2ccccc2-n2c1nc1ccccc1c2=O [TRYPTANTHRIN]
MIC [18]: 0.016 ng/mL (≈ 0.0645 nM)

NCCC[C@H](N)CC(=O)N[C@H]1CNC(=O)[C@H]([C@H]2C[C@H](O)NC(N)=N2)NC(=O)/C(=C/NC(N)=O)NC(=O)[C@H](CO)NC(=O)[C@H](CO)NC1=O [VIOMYCIN] (β3hOrn-[Dap]SS[ΔAla(Z-3-ureido)][X1]; lactam 1-C)
MIC [19]: 4000 ng/mL (≈ 5830 nM)
